For 81 targets, pEC50 results are on record in the supplement of paper PMC6411743.

Compound in this experiment: Nc1ncnc2c1ncn2[C@@H]1O[C@H](COP(=O)(O)OP(=O)(O)OP(=O)(O)O)[C@@H](O)[C@H]1O [adenosine triphosphate]
As to the kind of experiment: pEC50 of ATP-induced change in protein thermal stability (2D-TPP). The procedure: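 2D thermal proteome profiling in mechanically disrupted Jurkat crude lysate. Lysate was treated 10 min at room temperature with Na-ATP (0, 0.005, 0.05, 0.5, 2 mM), heated to 12 temperatures (42-63.9 °C) for 3 min, and soluble protein was quantified by TMT10 LC-MS/MS. pEC50 is the median over replicates of dose-response fits at the lowest temperature showing a fold change of at least 1.5 (FDR-controlled hits).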

Sequence of UniProt Q8IUI8 (Q8IUI8 whole entry): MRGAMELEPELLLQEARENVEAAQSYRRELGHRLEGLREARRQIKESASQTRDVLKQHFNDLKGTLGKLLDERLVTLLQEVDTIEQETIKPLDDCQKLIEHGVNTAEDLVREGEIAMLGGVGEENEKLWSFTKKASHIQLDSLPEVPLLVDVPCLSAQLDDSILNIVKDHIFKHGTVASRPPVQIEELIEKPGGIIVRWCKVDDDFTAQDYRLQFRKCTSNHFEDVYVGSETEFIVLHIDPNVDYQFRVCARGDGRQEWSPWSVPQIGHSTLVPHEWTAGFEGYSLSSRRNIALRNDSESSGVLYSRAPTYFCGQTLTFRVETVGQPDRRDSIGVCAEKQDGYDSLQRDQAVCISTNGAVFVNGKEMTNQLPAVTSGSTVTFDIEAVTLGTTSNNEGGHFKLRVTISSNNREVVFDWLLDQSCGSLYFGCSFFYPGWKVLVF
Sequence of UniProt Q14203 (Q14203 whole entry): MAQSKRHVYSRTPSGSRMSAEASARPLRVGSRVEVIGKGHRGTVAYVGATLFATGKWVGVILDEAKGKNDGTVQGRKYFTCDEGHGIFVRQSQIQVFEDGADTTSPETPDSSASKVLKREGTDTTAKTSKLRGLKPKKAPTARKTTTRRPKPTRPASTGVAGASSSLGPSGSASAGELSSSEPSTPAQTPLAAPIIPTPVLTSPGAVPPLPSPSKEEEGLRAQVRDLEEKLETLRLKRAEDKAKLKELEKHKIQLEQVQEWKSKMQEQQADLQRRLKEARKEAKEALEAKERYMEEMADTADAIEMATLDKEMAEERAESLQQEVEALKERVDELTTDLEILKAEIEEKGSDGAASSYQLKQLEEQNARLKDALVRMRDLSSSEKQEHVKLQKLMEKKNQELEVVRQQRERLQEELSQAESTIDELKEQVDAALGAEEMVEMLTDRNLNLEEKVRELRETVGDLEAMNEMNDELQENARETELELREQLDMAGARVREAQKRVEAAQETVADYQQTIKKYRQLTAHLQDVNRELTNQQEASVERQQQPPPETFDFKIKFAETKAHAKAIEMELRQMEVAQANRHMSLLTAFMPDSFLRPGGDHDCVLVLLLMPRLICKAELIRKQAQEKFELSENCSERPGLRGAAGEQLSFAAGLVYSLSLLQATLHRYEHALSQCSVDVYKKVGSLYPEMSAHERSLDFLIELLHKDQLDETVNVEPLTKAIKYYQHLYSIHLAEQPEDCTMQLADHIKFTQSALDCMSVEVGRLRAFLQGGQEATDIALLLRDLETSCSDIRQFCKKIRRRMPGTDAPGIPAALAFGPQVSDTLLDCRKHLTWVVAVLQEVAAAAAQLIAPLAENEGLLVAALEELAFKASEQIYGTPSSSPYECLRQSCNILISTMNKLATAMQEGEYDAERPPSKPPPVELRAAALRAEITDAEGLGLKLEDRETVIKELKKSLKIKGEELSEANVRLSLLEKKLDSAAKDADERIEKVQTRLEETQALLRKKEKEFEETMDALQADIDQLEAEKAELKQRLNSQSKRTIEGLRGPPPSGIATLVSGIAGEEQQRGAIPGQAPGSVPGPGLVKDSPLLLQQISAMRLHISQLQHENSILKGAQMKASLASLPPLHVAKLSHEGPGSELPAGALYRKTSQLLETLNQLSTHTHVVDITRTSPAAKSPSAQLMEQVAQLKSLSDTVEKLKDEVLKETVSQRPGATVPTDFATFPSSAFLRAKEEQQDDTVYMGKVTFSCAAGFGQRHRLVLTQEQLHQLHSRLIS
Sequence of UniProt Q8IYB7 (Q8IYB7 whole entry): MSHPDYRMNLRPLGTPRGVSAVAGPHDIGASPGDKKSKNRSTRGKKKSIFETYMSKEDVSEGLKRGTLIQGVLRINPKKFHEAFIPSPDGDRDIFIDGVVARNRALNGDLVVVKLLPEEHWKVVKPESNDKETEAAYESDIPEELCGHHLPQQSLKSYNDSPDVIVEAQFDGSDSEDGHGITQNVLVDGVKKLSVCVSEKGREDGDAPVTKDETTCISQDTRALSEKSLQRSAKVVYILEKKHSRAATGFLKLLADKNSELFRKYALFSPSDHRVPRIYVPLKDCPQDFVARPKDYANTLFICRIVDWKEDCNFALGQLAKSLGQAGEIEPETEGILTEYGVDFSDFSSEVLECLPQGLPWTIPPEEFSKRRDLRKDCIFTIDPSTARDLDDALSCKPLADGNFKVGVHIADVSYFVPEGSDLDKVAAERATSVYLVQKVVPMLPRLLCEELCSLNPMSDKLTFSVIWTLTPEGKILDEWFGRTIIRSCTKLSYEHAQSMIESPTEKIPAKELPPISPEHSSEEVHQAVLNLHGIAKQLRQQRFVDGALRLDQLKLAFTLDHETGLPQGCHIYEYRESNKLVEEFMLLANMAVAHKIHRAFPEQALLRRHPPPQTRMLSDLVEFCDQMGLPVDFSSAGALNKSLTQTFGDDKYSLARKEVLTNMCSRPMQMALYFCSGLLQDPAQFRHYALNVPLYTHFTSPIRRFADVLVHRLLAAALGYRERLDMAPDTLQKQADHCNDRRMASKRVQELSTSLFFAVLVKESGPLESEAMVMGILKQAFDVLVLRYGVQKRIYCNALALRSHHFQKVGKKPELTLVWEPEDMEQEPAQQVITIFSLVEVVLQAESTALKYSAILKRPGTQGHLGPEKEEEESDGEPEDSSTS
Sequence of UniProt P51798 (P51798 whole entry): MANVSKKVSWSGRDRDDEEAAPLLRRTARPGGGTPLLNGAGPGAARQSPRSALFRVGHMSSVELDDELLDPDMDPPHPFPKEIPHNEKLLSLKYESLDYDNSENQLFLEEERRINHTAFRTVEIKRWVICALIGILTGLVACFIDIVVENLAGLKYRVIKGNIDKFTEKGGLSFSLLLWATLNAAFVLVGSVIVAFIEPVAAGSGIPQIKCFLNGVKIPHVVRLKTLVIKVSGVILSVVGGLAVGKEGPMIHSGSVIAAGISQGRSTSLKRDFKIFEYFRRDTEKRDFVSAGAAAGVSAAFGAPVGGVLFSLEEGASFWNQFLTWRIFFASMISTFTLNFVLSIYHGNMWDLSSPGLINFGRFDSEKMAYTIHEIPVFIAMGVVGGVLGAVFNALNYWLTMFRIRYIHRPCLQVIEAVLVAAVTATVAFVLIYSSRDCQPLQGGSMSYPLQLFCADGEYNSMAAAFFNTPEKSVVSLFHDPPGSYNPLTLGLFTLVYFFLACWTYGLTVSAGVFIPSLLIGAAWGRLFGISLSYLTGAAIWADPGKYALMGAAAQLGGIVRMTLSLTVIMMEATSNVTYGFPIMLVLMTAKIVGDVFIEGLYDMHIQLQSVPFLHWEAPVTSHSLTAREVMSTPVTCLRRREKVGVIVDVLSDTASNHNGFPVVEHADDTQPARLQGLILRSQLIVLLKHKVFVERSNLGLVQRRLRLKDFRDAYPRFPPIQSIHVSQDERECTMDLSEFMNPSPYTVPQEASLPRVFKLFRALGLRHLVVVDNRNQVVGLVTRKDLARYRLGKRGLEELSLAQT
Sequence of UniProt Q6P158 (Q6P158 whole entry): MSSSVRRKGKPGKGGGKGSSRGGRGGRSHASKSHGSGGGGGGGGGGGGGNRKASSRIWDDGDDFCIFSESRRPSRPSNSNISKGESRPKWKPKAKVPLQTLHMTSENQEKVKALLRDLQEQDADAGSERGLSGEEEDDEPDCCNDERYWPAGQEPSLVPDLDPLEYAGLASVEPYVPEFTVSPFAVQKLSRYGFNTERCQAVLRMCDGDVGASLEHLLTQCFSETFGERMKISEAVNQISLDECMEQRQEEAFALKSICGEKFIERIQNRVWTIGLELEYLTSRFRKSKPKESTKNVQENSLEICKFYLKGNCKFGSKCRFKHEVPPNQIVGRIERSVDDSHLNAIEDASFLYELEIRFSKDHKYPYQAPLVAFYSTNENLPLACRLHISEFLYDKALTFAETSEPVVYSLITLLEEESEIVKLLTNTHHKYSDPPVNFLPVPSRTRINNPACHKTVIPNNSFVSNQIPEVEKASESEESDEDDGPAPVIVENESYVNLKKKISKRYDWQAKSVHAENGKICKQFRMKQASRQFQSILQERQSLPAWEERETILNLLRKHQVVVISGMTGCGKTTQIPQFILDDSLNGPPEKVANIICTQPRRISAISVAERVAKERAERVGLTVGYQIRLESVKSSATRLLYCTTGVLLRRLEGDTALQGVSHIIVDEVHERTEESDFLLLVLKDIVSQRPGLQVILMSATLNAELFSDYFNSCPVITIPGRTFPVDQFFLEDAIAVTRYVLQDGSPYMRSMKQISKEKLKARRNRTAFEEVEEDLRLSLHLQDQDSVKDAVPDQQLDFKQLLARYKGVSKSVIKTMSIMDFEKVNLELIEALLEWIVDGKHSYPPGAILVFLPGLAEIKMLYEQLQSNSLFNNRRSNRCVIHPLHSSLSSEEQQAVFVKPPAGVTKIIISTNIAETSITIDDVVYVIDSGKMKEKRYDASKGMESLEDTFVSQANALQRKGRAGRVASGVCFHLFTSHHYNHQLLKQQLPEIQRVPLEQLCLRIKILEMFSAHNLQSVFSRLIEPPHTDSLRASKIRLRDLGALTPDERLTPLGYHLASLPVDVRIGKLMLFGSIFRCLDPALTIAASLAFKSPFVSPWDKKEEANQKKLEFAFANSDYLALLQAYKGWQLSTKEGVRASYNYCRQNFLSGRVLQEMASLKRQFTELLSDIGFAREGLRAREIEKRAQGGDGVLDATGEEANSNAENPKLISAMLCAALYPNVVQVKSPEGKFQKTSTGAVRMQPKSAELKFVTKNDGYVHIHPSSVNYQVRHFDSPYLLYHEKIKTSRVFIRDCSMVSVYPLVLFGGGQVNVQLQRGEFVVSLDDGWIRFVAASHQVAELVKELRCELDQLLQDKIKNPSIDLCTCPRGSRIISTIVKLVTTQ
Sequence of UniProt Q9UHQ9 (Q9UHQ9 whole entry): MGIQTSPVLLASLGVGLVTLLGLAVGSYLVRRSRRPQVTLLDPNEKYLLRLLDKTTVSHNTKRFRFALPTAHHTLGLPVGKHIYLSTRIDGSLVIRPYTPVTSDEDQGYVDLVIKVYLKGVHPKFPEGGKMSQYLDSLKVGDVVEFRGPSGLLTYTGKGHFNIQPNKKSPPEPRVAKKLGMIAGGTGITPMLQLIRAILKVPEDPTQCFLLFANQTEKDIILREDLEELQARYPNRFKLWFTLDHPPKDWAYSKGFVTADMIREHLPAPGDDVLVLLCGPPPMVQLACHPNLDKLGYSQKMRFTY

Usually pEC50 stands for the EC50 on a negative log10 scale, so that one unit is a factor of ten. With “CDK2 (effect direction: stabilized) (UniProt P24941)”, the pEC50 is 3.13.

In the case of “CDK5 (effect direction: stabilized) (UniProt Q00535)”, the pEC50 stood at 3.46.

Turning to “CDK9 (effect direction: stabilized) (UniProt P50750)”, the pEC50 is above 5.3.

With “CDKAL1 (effect direction: destabilized) (UniProt Q5VV42)”, the pEC50 was found to be 2.9.

In the case of “CEBPZ (effect direction: destabilized) (UniProt Q03701)”, the pEC50 came to 3.06.

As for “CENPE (effect direction: stabilized) (UniProt Q02224)”, the pEC50 was determined as 4.04.

In the case of “CHD1 (effect direction: stabilized) (UniProt O14646)”, the pEC50 was below 2.7.

Take “CHD1L (effect direction: stabilized) (UniProt Q86WJ1)”: the pEC50 turned out to be 3.74.

As for “CHERP (effect direction: stabilized) (UniProt Q8IWX8)”, the pEC50 is 3.05.

For the target “CHKA (effect direction: stabilized) (UniProt P35790)”, the pEC50 was found to be 3.49.

Take “CHORDC1 (effect direction: stabilized) (UniProt Q9UHD1)”: the pEC50 was below 2.7.

For “CINP (effect direction: stabilized) (UniProt Q9BW66)”, the pEC50 came out at 2.98.

With “CLCN3 (effect direction: stabilized) (UniProt P51790)”, the negative logarithm of the EC50 (pEC50) worked out at 3.23.

For the target “CLCN7 (effect direction: stabilized) (UniProt P51798)”, the pEC50 amounted to 3.4.

For the target “CLIC1 (effect direction: stabilized) (UniProt O00299)”, the pEC50 is below 2.7.

On to “CLN5 (effect direction: stabilized) (UniProt O75503)”, for which the pEC50 stood at 3.38.

On to “CLYBL (effect direction: destabilized) (UniProt Q8N0X4)”, for which the pEC50 came out at 2.92.

Take “CMPK1 (effect direction: stabilized) (UniProt P30085)”: the pEC50 stood at 3.27.

Regarding “CNOT1 (effect direction: stabilized) (UniProt A5YKK6)”, the pEC50 came to 3.41.

On to “CNOT2 (effect direction: stabilized) (UniProt Q9NZN8)”, for which the negative-log EC50 (pEC50) came out at 2.77.

“CNOT10 (effect direction: stabilized) (UniProt Q9H9A5)”: the pEC50 came out at 3.17.

Take “COPB2 (effect direction: stabilized) (UniProt P35606)”: the pEC50 was below 2.7.

For “COPS5 (effect direction: stabilized) (UniProt Q92905)”, the pEC50 is below 2.7.

In the case of “COPS6 (effect direction: stabilized) (UniProt Q7L5N1)”, the pEC50 was below 2.7.

As for “CPSF1 (effect direction: stabilized) (UniProt Q10570)”, the pEC50 was below 2.7.

With “CPSF2 (effect direction: stabilized) (UniProt Q9P2I0)”, the pEC50 is below 2.7.

On to “CRLF3 (effect direction: stabilized) (UniProt Q8IUI8)”, for which the pEC50 was below 2.7.

Consider “CS (effect direction: stabilized) (UniProt O75390)”, for which the pEC50 is below 2.7.

Regarding “CSE1L (effect direction: stabilized) (UniProt P55060)”, the pEC50 is 3.69.

As to “CTBP1 (effect direction: stabilized) (UniProt Q13363)”, the pEC50 was 2.87.

On to “CTBS (effect direction: stabilized) (UniProt Q01459)”, for which the pEC50 was found to be 2.87.

On to “CTNNBL1 (effect direction: stabilized) (UniProt Q8WYA6)”, for which the pEC50 stood at 3.08.

“CTSA (effect direction: stabilized) (UniProt P10619)”: the pEC50 turned out to be 3.12.

On to “CTSB (effect direction: stabilized) (UniProt P07858)”, for which the pEC50 was 3.34.

Consider “CTSD (effect direction: stabilized) (UniProt P07339)”, for which the pEC50 was found to be 3.11.

As to “CYB5R1 (effect direction: stabilized) (UniProt Q9UHQ9)”, the pEC50 was below 2.7.

Take “CYB5R3 (effect direction: stabilized) (UniProt P00387)”: the pEC50 worked out at 4.02.

As for “DARS2 (effect direction: stabilized) (UniProt Q6PI48)”, the pEC50 stood at 4.12.

Take “DCPS (effect direction: stabilized) (UniProt Q96C86)”: the pEC50 is below 2.7.

Consider “DCTN1 (effect direction: stabilized) (UniProt Q14203)”, for which the pEC50 was below 2.7.

In the case of “DDB2 (effect direction: stabilized) (UniProt Q92466)”, the pEC50 is 3.2.

As to “DDHD2 (effect direction: stabilized) (UniProt O94830)”, the pEC50 was below 2.7.

For the target “DDX11L8 (effect direction: stabilized) (UniProt A8MPP1)”, the pEC50 was found to be 3.15.

As for “DDX19A (effect direction: stabilized) (UniProt Q9NUU7)”, the pEC50 is 3.75.

As to “DDX20 (effect direction: stabilized) (UniProt Q9UHI6)”, the pEC50 was found to be 3.48.

Consider “DDX49 (effect direction: stabilized) (UniProt Q9Y6V7)”, for which the pEC50 was found to be 3.93.

On to “DDX56 (effect direction: stabilized) (UniProt Q9NY93)”, for which the pEC50 was found to be 3.68.

On to “DECR1 (effect direction: stabilized) (UniProt Q16698)”, for which the pEC50 is below 2.7.

On to “DERA (effect direction: stabilized) (UniProt Q9Y315)”, for which the pEC50 is 3.16.

Take “DHCR24 (effect direction: stabilized) (UniProt Q15392)”: the pEC50 was determined as 3.66.

In the case of “DHX16 (effect direction: stabilized) (UniProt O60231)”, the pEC50 came to 4.14.

Regarding “DHX36 (effect direction: stabilized) (UniProt Q9H2U1)”, the pEC50 was found to be 3.99.

Consider “DHX40 (effect direction: stabilized) (UniProt Q8IX18)”, for which the pEC50 turned out to be 3.44.

In the case of “DHX57 (effect direction: stabilized) (UniProt Q6P158)”, the pEC50 stood at 4.17.

On to “DIS3L2 (effect direction: stabilized) (UniProt Q8IYB7)”, for which the pEC50 was determined as 3.42.

Regarding “DLGAP5 (effect direction: destabilized) (UniProt Q15398)”, the pEC50 was found to be 2.82.

Consider “DNAJA2 (effect direction: stabilized) (UniProt O60884)”, for which the pEC50 is below 2.7.

With “DNAJC13 (effect direction: stabilized) (UniProt O75165)”, the pEC50 amounted to 2.86.

Regarding “DNMT1 (effect direction: destabilized) (UniProt P26358)”, the pEC50 turned out to be 2.98.

“DRAP1 (effect direction: destabilized) (UniProt Q14919)”: the pEC50 is below 2.7.

Take “DUS3L (effect direction: stabilized) (UniProt Q96G46)”: the pEC50 was found to be 2.91.

Consider “DUSP12 (effect direction: stabilized) (UniProt Q9UNI6)”, for which the pEC50 was below 2.7.

Turning to “DYNC1H1 (effect direction: stabilized) (UniProt Q14204)”, the pEC50 is 3.39.

Take “DYRK1A (effect direction: stabilized) (UniProt Q13627)”: the pEC50 came out at 3.49.

Take “EDF1 (effect direction: stabilized) (UniProt O60869)”: the pEC50 is below 2.7.

As to “EEF1D (effect direction: stabilized) (UniProt P29692)”, the negative-log EC50 (pEC50) was below 2.7.

Turning to “EEF1G (effect direction: stabilized) (UniProt P26641)”, the pEC50 was below 2.7.

For the target “EFHD1 (effect direction: destabilized) (UniProt Q9BUP0)”, the pEC50 was determined as 3.18.

As to “EFHD2 (effect direction: destabilized) (UniProt Q96C19)”, the pEC50 is 3.08.

Consider “EHD4 (effect direction: stabilized) (UniProt Q9H223)”, for which the pEC50 came out at 3.86.

On to “EIF2B2 (effect direction: stabilized) (UniProt P49770)”, for which the pEC50 is 2.83.

Take “EIF2B3 (effect direction: stabilized) (UniProt Q9NR50)”: the pEC50 was 3.82.

With “EIF3A (effect direction: destabilized) (UniProt Q14152)”, the pEC50 was 4.48.

Take “EIF3K (effect direction: stabilized) (UniProt Q9UBQ5)”: the pEC50 is below 2.7.

For “EIF3L (effect direction: stabilized) (UniProt Q9Y262)”, the pEC50 is below 2.7.

For “EIF4A3 (effect direction: stabilized) (UniProt P38919)”, the pEC50 came to 3.68.

Take “EIF4G1 (effect direction: stabilized) (UniProt Q04637)”: the pEC50 came to 2.71.

Regarding “EIF4G2 (effect direction: stabilized) (UniProt P78344)”, the pEC50 is below 2.7.

“EIF5 (effect direction: stabilized) (UniProt P55010)”: the pEC50 was below 2.7.

As for “ELAVL1 (effect direction: stabilized) (UniProt Q15717)”, the pEC50 is 3.02.

Take “EMG1 (effect direction: stabilized) (UniProt Q92979)”: the pEC50 came out at 5.25.
